Measurements taken from patent US20240023546A1, “TRIGEMINAL CUE FOR WILDLIFE REPELLENTS” (The United States of America, as Represented by the …, priority 2022, published 2024).

Test system: cottontail rabbits
Assay: no-choice feeding experiment, repellency of cottontail rabbits from treated whole oats
Assay type: in vivo
From the text: As used herein, the term “repellency” means the percent decrease in consumption (or occupancy) of a treated substrate relative to an untreated substrate. […] These values can be used to define a range, such as 50% to 75%, or 75% to 85%, or 25% to 50% decrease in consumption (or occupancy) of a treated substrate relative to an untreated substrate.
We conducted one no-choice feeding experiment for each unique combination of the trigeminal nerve irritant (methyl anthranilate) and the animal repellent (anthraquinone). For each feeding experiment, we used 24-30 cottontail rabbits to evaluate the efficacy of our repellent formulations. For each experiment, we offered untreated food for up to three days of the pretreatment and repellent-treated food during the 1-day test. For each experiment, our three test treatments (n=8−10 rabbits per treatment group) included food treated with (1) the methyl anthranilate alone, (2) the anthraquinone alone and (3) the combination of the methyl anthranilate and the anthraquinone.

Compound | % Repellency (whole oats treated with 5000 ppm MA alone, 1-day no-choice test) | % Repellency (whole oats treated with 5000 ppm MA alone, 1-day no-choice test, listed as MA) | % Repellency (whole oats treated with 10,000 ppm MA alone, 1-day no-choice test) | % Repellency (rabbit, in vivo)
COC(=O)c1ccccc1N [methyl anthranilate] | 6% | 6% | 62% | 
O=C1c2ccccc2C(=O)c2ccccc21 [anthraquinone, 9,10-anthraquinone] |  |  |  | 36%
